Reference: US8492582B2, “N-acyl anthranilic acid derivative or salt thereof” (Toyama Chemical Co., Ltd., priority 2009, dated 2013)
Where a name gives a salt, the structure may show the parent alone.

System: type I collagen α1 chain mRNA in WI-38 cells
Assay: Type I collagen α1 chain mRNA expression inhibition test
Type: cell-based
Details: Homo sapiens, WI-38, 24 h, read-out: Inhibition rate (%) at 10 μmol/L
Experimental: Human embryonic lung fibroblast cell line WI-38 cells were suspended in a Dulbecco's modified Eagle's medium containing 10% fetal calf serum, and 7.5×10^4 cells were inoculated on a 12-well plate and cultured for 3 days, or 1.5×10^5 cells were inoculated and cultured for 2 days. After the growth of the cells to a subconfluent state, the culture medium was changed to a Dulbecco's modified Eagle's medium containing 0.4% fetal calf serum and 50 μg/mL ascorbic acid, and the cells were further cultured for 24 hours. Then, a test compound was added thereto, and, one hour later, TGF-β1 was added at a final concentration of 1 ng/mL. Twenty-four hours after the addition, the total RNA was extracted from the cells using an RNA extraction kit (SV Total RNA Isolation System, Promega), and cDNA was synthesized using a reverse transcriptase (ReverTra Ace, TOYOBO). The expression level of the type I collagen al chain mRNA was analyzed with a real-time PCR instrument (ABI PRISM 7700 Sequence Detection System, Applied Biosystems) by a real-time PCR method using a premix reagent of real-time PCR (SYBR Premix Ex Taq or SYBR Premix Ex Taq II (Perfect Real Time), TaKaRa). A PCR reaction was conducted with diluted cDNA as a template, using primers specific for a type I collagen α1 chain gene or a GAPDH gene as an internal standard, and the reaction product was measured. The PCR reaction was conducted by incubation at 95° C. for 10 seconds and 45 cycles of denaturation at 95° C. for 5 seconds and annealing/extension at 60° C. for 30 seconds. The expression level of the type I collagen α1 chain mRNA was corrected with GAPDH and was expressed as a relative value when the expression level obtained in the absence of the test compound was defined as 100%.

SMILES	inhibition at 10 µM
O=C(Nc1cc(-c2ccccc2)ccc1C(=O)O)c1ccc(-c2cccnc2)cc1O [Example 13a, sodium 2-(2-hydroxy-4-(pyridin-3-yl)benzamido)-4-phenylbenzoate]	93%
O=C(Nc1cc(-c2ccccc2)ccc1C(=O)O)c1cc(-c2ccncc2)ccc1O [Example 19a, sodium 2-(2-hydroxy-5-(pyridin-4-yl)benzamido)-4-phenylbenzoate]	83%
O=C(Nc1cc(-c2ccco2)ccc1C(=O)O)c1cc(-c2cccnc2)ccc1O [Example 44a, sodium 4-(furan-2-yl)-2-(2-hydroxy-5-(pyridin-3-yl)benzamido)benzoate]	89%
O=C(Nc1cc(-c2ccoc2)ccc1C(=O)O)c1cc(-c2cccnc2)ccc1O [Example 46a, sodium 4-(furan-3-yl)-2-(2-hydroxy-5-(pyridin-3-yl)benzamido)benzoate]	91%
CN(CCN1CCCC1)c1ccc(O)c(C(=O)Nc2cc(-c3ccccc3)ccc2C(=O)O)c1 [Example 95a, sodium 2-(2-hydroxy-5-(methyl(2-(pyrrolidin-1-yl)ethyl)amino)benzamido)-4-phenylbenzoate]	88%
CN(C)CCN(C)c1ccc(C(=O)Nc2cc(-c3ccccc3)ccc2C(=O)O)c(O)c1 [Example 97a, sodium 2-(4-((2-(dimethylamino)ethyl)(methyl)amino)-2-hydroxybenzamido)-4-phenylbenzoate]	83%

Same assay, conditions: Homo sapiens; 10 μmol/L test compound; WI-38 cells, TGF-β1 1 ng/mL, 24 hours; Table 4a; read-out: Inhibition rate (%) at 10 μmol/L

SMILES	inhibition at 10 µM
CCN1CCC(c2ccc(O)c(C(=O)Nc3cc(-c4ccccc4)ccc3C(=O)O)c2)CC1 [222a, 2-(5-(1-ethylpiperidin-4-yl)-2-hydroxybenzamido)-4-phenylbenzoic acid]	85%
O=C(Nc1cc(-c2ccccc2)ccc1C(=O)O)c1cc(C2CCN(CCO)CC2)ccc1O [225a, 2-(2-hydroxy-5-(1-(2-hydroxyethyl)piperidin-4-yl)benzamido)-4-phenylbenzoic acid]	86%
O=C(Nc1cc(-c2ccccc2)ccc1C(=O)O)c1cc(Cl)ccc1O [Example 2a, 2-(5-Chloro-2-hydroxybenzamido)-4-phenylbenzoic acid]	99%
Cc1ccc(O)c(C(=O)Nc2cc(-c3ccccc3)ccc2C(=O)O)c1 [Example 4a, 2-(2-Hydroxy-5-methylbenzamido)-4-phenylbenzoic acid]	97%
COc1ccc(C(=O)Nc2cc(-c3ccccc3)ccc2C(=O)O)c(O)c1 [Example 6a, 2-(2-Hydroxy-4-methoxybenzamido)-4-phenylbenzoic acid]	95%
COc1ccc(O)c(C(=O)Nc2cc(-c3ccccc3)ccc2C(=O)O)c1 [Example 7a, 2-(2-Hydroxy-5-methoxybenzamido)-4-phenylbenzoic acid]	94%
O=C(O)c1ccc(-c2ccccc2)cc1NC(=O)c1cccc(-c2cccnc2)c1O [Example 16a, Sodium 2-(2-hydroxy-3-(pyridin-3-yl)benzamido)-4-phenylbenzoate]	80%
O=C(Nc1cc(-c2ccccc2)ccc1C(=O)O)c1cc(-n2cccn2)ccc1O [Example 22a, 2-(2-hydroxy-5-(1H-pyrazol-1-yl)benzamido)-4-phenylbenzoic acid]	97%
O=C(Nc1cc(-c2ccccc2)ccc1C(=O)O)c1cc(-c2ccccn2)ccc1O [Example 27a, 2-(2-hydroxy-5-(pyridin-2-yl)benzamido)-4-phenylbenzoic acid]	98%
O=C(Nc1cc(-c2ccccc2)ccc1C(=O)O)c1cc(-c2ncccn2)ccc1O [Example 29a, 2-(2-hydroxy-5-(pyrimidin-2-yl)benzamido)-4-phenylbenzoic acid]	90%
O=C(Nc1cc(-c2ccccc2)ccc1C(=O)O)c1cc(-n2ccnc2)ccc1O [Example 34a, 2-(2-Hydroxy-5-(1H-imidazol-1-yl)benzamido)-4-phenylbenzoic acid hydrochloride]	82%
COc1ccccc1-c1ccc(C(=O)O)c(NC(=O)c2cc(-c3ccccn3)ccc2O)c1 [Example 35a, 2-(2-Hydroxy-5-(pyridin-2-yl)benzamido)-4-(2-methoxyphenyl)benzoic acid hydrochloride]	90%
COc1ccccc1-c1ccc(C(=O)O)c(NC(=O)c2cc(-c3cccnc3)ccc2O)c1 [Example 37a, 2-(2-hydroxy-5-(pyridin-3-yl)benzamido)-4-(2-methoxyphenyl)benzoic acid]	94%
Cc1cccc(C(=O)Nc2cc(-c3ccccc3)ccc2C(=O)O)c1O [Example 41a, 2-(2-hydroxy-3-methylbenzamido)-4-phenylbenzoic acid]	99%
CN1CCC(c2ccc(O)c(C(=O)Nc3cc(-c4ccccc4)ccc3C(=O)O)c2)CC1 [Example 50a, 2-(2-hydroxy-5-(1-methylpiperidin-4-yl)benzamido)-4-phenylbenzoic acid]	75%
O=C(Nc1cc(-c2ccco2)ccc1C(=O)O)c1cc(N2CCCCC2)ccc1O [Example 65a, 4-(furan-2-yl)-2-(2-hydroxy-5-(piperidin-1-yl)benzamido)benzoic acid methanesulfonate]	71%

SMILES	inhibition at 10 µM
O=C(Nc1cc(-c2ccccc2)ccc1C(=O)O)c1cc(-c2ccco2)ccc1O [Example 68a, 2-(5-(furan-2-yl)-2-hydroxybenzamido)-4-phenylbenzoic acid]	98%
Nc1cccc(-c2ccc(O)c(C(=O)Nc3cc(-c4ccccc4)ccc3C(=O)O)c2)n1 [Example 73a, 2-(5-(6-aminopyridin-2-yl)-2-hydroxybenzamido)-4-phenylbenzoic acid]	96%
CN(C)c1ccc(O)c(C(=O)Nc2cc(-c3ccccc3)ccc2C(=O)O)c1 [Example 76a, 2-(5-(dimethylamino)-2-hydroxybenzamido)-4-phenylbenzoic acid hydrochloride]	72%
O=C(Nc1cc(-c2ccccc2)ccc1C(=O)O)c1cc(N2CCC2)ccc1O [Example 86a, 2-(5-(Azetidin-1-yl)-2-hydroxybenzamido)-4-phenylbenzoic acid hydrochloride]	85%
O=C(Nc1cc(-c2ccccc2)ccc1C(=O)O)c1cc(N2CCSCC2)ccc1O [Example 89a, 2-(2-hydroxy-5-(thiomorpholin-4-yl)benzamido)-4-phenylbenzoic acid]	98%
CN1CCN(c2ccc(O)c(C(=O)Nc3cc(-c4ccccc4)ccc3C(=O)O)c2)CC1 [Example 92a, 2-(2-hydroxy-5-(4-methylpiperazin-1-yl)benzamido)-4-phenylbenzoic acid dimethanesulfonate]	84%
O=C(Nc1cc(-c2ccccc2)ccc1C(=O)O)c1ccc(N2CCCCC2)cc1O [Example 100a, 2-(2-hydroxy-4-(piperidin-1-yl)benzamido)-4-phenylbenzoic acid]	99%
CCN(CC)CCN(C)c1ccc(O)c(C(=O)Nc2cc(-c3ccccc3)ccc2C(=O)O)c1 [Example 102a, 2-(5-((2-(Diethylamino)ethyl)(methyl)amino)-2-hydroxybenzamido)-4-phenylbenzoic acid]	89%
CCN(CCN(C)C)c1ccc(O)c(C(=O)Nc2cc(-c3ccccc3)ccc2C(=O)O)c1 [Example 104a, 2-(5-((2-(Dimethylamino)ethyl)(ethyl)amino)-2-hydroxybenzamido)-4-phenylbenzoic acid]	92%
CN(C)CCOc1ccc(O)c(C(=O)Nc2cc(-c3ccccc3)ccc2C(=O)O)c1 [Example 109a, 2-(5-(2-(Dimethylamino)ethoxy)-2-hydroxybenzamido)-4-phenylbenzoic acid hydrochloride]	91%
O=C(Nc1cc(-c2ccccc2)ccc1C(=O)O)c1cc(Oc2ccccc2)ccc1O [Example 115a, 2-(2-hydroxy-5-phenoxybenzamido)-4-phenylbenzoic acid]	98%
CNC1CCN(Cc2ccc(O)c(C(=O)Nc3cc(-c4ccccc4)ccc3C(=O)O)c2)CC1 [Example 126a, 2-(2-Hydroxy-5-((4-(methylamino)piperidin-1-yl)methyl)benzamido)-4-phenylbenzoic acid dimethanesulfonate]	79%
CN(C)CCN(C)Cc1ccc(O)c(C(=O)Nc2cc(-c3ccccc3)ccc2C(=O)O)c1 [Example 134a, 2-(5-(((2-(dimethylamino)ethyl)(methyl)amino)methyl)-2-hydroxybenzamido)-4-phenylbenzoic acid]	90%
CN1CCN(CCCOc2ccc(O)c(C(=O)Nc3cc(-c4ccccc4)ccc3C(=O)O)c2)CC1 [Example 141a, 2-(2-hydroxy-5-(3-(4-methylpiperazin-1-yl)propoxy)benzamido)-4-phenylbenzoic acid dimethanesulfonate]	92%
O=C(Nc1cc(-c2ccccc2)ccc1C(=O)O)c1cc(OCCN2CCNCC2)ccc1O [Example 144a, 2-(2-hydroxy-5-(2-(piperazin-1-yl)ethoxy)benzamido)-4-phenylbenzoic acid dimethanesulfonate]	96%
